Measurements published in patent US11160871B2, “SSTR-targeted conjugates and particles and formulations thereof” (TARVEDA THERAPEUTICS, INC., priority 2015, dated 2021).
pIC50: −log10 of the molar value. Like-named read-outs stand apart in the source and are kept apart here. Positions of bridges follow the written chain, without caps; N, C: chain ends. Non-standard residues stand in square brackets, D forms with d. Residues, ends and D or L forms follow the SMILES beside them. *: point of attachment. NH(CH2)2SS(DM1) = COc1cc2cc(c1Cl)N(C)C(=O)C[C@H](OC(=O)[C@H](C)N(C)C(=O)CCSSCCN*)[C@]1(C)O[C@H]1[C@H](C)[C@@H]1C[C@@](O)(NC(=O)O1)[C@H](OC)/C=C/C=C(\C)C2; X1 = COc1cc2cc(c1Cl)N(C)C(=O)C[C@H](OC(=O)[C@H](C)N(C)C(=O)CCS*)[C@]1(C)O[C@H]1[C@H](C)[C@@H]1C[C@@](O)(NC(=O)O1)[C@H](OC)/C=C/C=C(\C)C2; Thr(ol) = C[C@@H](O)[C@H](N)CO

Experiments:
[1] = system: NCI-H524 human small cell lung cancer cells; assay: cells; type: cell-based
Protocol: Conjugates of the present invention were assessed in an in vitro assay evaluating inhibition of cell proliferation. NCI-H524 (ATCC) human small cell lung cancer cells were plated in 96 well, V-bottomed plates (Costar) at a concentration of 5,000 cells/well. 24 hours later, cells were treated with either conjugate for 2 hours and further incubated 70 hours, or for octreotide competition experiments, treated with 100 μM octreotide for 30 min, and then treated with conjugate for 2 hours, and further incubated for 70 hours. Conjugate starting dose was 20 μM and three fold serial dilutions were done for a total of ten points. After 2 hours of treatment, cells were spun down, the drug containing media was removed, and fresh complete medium was added and used to resuspend the cells, which were spun again. After removal of the wash media, the cells were resuspended in complete medium, and then transferred into white walled, flat bottomed 96 well plates. […] Proliferation was measured using CellTiter Glo reagent using the standard protocol (Promega) and a Glomax multi+ detection system (Promega). Percent proliferation inhibition was calculated using the following formula: % inhibition=(control−treatment)/control*100. Control is defined as vehicle alone. IC50 curves were generated using the nonlinear regression analysis (four parameter) with GraphPad Prism 6.

NCI-H69 SCLC tumors = assay: H69 tumor DM-1 levels by LC/MS-MS; type: in vivo, mice; conditions: 1 mg/kg; 24 hour time point
Protocol: To examine the ability of conjugates of the present invention to accumulate in tumors, a murine cancer model was used. All mice were treated in accordance with the OLAW Public Health Service Policy on Human Care and Use of Laboratory Animals and the ILAR Guide for the Care and Use of Laboratory Animals. All in vivo studies were conducted following the protocols approved by the Blend Therapeutics Institutional Animal Care and Use Committee. Animals were inoculated with 2.5×10^6 NCI-H69 SCLC (small cell lung cancer) cells in 1:1 RPMI 1640 (Invitrogen, Carlsbad, Calif.)/Matrigel® (BD Biosciences, San Jose, Calif.) via subcutaneous injection to the right flank. Tumors were allowed to reach an approximate volume of ˜500 mm3. Animals were then randomized into treatment groups of 3 animals per time point and were dosed at 1 mg/kg (10% propylene glycol in water for injection for free conjugates, or 10% sucrose for nanoparticles), or 0.4 mg/kg for DM-1 (10% propylene glycol in water for injection). The 24 hour time point was used as a benchmark across conjugates.
Tumor DM-1 levels were determined by liquid chromatography mass spectrometry (LC/MS-MS). Four volumes of 5 mM 6-maleimidohexanoic acid to 1 part tumor v/w was added and homogenized for about 10-15 seconds with a handheld homogenizer. 10 μL of 500 mM Tris(2-carboxyethyl)phosphine was added to 100 uL of tumor homogenate, mixed well and incubated at room temperature for about 5-15 min. 200-300 uL of acetonitrile was used to precipitate proteins in tumor homogenate, samples were centrifuged for 5 min, and supernatant was injected onto LC/MS-MS system for DM-1 analysis.

[2] = 2 hours treatment, 70 hours further incubation, read-out: H524 IC50
[3] = read-out: H524 IC50+ 100 uM octreotide, 100 μM octreotide for 30 min before conjugate

COc1cc2cc(c1Cl)N(C)C(=O)C[C@H](OC(=O)[C@H](C)N(C)C(=O)CCSC1CC(=O)N(CCCNC(=O)CC[C@H](NC(=O)[C@@H]3CSSC[C@H](NC(=O)[C@H](N)Cc4ccccc4)C(=O)N[C@@H](Cc4ccc(O)cc4)C(=O)N[C@H](Cc4c[nH]c5ccccc45)C(=O)N[C@@H](CCCCN)C(=O)N[C@@H]([C@@H](C)O)C(=O)N3)C(=O)NCCCN3C(=O)CC(SCCC(=O)N(C)[C@@H](C)C(=O)O[C@H]4CC(=O)N(C)c5cc(cc(OC)c5Cl)C/C(C)=C/C=C/[C@@H](OC)[C@@]5(O)C[C@H](OC(=O)N5)[C@@H](C)[C@@H]5O[C@@]45C)C3=O)C1=O)[C@]1(C)O[C@H]1[C@H](C)[C@@H]1C[C@@](O)(NC(=O)O1)[C@H](OC)/C=C/C=C(\C)C2 (single isomer, unassigned) [Conjugate 53] gave a pIC50 [1, 2] of 7.38 and a pIC50 [1, 3] of 6.76.
COc1cc2cc(c1Cl)N(C)C(=O)C[C@H](OC(=O)[C@H](C)N(C)C(=O)CCSSC(C)CCN[C@H](Cc1ccccc1)C(=O)N[C@H]1CSSC[C@@H](C(=O)N[C@H](CO)[C@@H](C)O)NC(=O)[C@H]([C@@H](C)O)NC(=O)[C@H](CCCCN)NC(=O)[C@@H](Cc3c[nH]c4ccccc34)NC(=O)[C@H](Cc3ccccc3)NC1=O)[C@]1(C)O[C@H]1[C@H](C)[C@@H]1C[C@@](O)(NC(=O)O1)[C@H](OC)/C=C/C=C(\C)C2 (single isomer, unassigned) [Conjugate 82] gave a pIC50 [1, 2] of 6.83 and a pIC50 [1, 3] of 6.06.
With CCCCCCCCCCC(CCN[C@H](Cc1ccccc1)C(=O)N[C@H]1CSSC[C@@H](C(=O)N[C@@H](Cc2c[nH]c3ccccc23)C(N)=O)NC(=O)[C@H](C(C)C)NC(=O)[C@H](CCCCN)NC(=O)[C@@H](Cc2c[nH]c3ccccc23)NC(=O)[C@H](Cc2ccc(O)cc2)NC1=O)SSCCC(=O)N(C)[C@@H](C)C(=O)O[C@H]1CC(=O)N(C)c2cc(cc(OC)c2Cl)C/C(C)=C/C=C/[C@@H](OC)[C@@]2(O)C[C@H](OC(=O)N2)[C@@H](C)[C@@H]2O[C@@]12C (single isomer, unassigned) [Conjugate 102] the pIC50 [1, 2] was 6.47 and the pIC50 [1, 3] was 6.24.
Compound COc1cc2cc(c1Cl)N(C)C(=O)C[C@H](OC(=O)[C@H](C)N(C)C(=O)CCSC1CC(=O)N(CC3CCC(C(=O)N[C@H](Cc4ccccc4)C(=O)N[C@H]4CSSC[C@@H](C(=O)N[C@H](CO)[C@@H](C)O)NC(=O)[C@H]([C@@H](C)O)NC(=O)[C@H](CCCCN)NC(=O)[C@@H](Cc5c[nH]c6ccccc56)NC(=O)[C@H](Cc5ccccc5)NC4=O)CC3)C1=O)[C@]1(C)O[C@H]1[C@H](C)[C@@H]1C[C@@](O)(NC(=O)O1)[C@H](OC)/C=C/C=C(\C)C2 (single isomer, unassigned) [Conjugate 104] has a pIC50 [1, 2] of 6.55 and a pIC50 [1, 3] of 6.15.
For COc1cc2cc(c1Cl)N(C)C(=O)C[C@H](OC(=O)[C@H](C)N(C)C(=O)CCSC1CC(=O)N(CC(=O)N[C@H](Cc3ccccc3)C(=O)N[C@H]3CSSC[C@@H](C(=O)N[C@H](CO)[C@@H](C)O)NC(=O)[C@H]([C@@H](C)O)NC(=O)[C@H](CCCCN)NC(=O)[C@@H](Cc4c[nH]c5ccccc45)NC(=O)[C@H](Cc4ccccc4)NC3=O)C1=O)[C@]1(C)O[C@H]1[C@H](C)[C@@H]1C[C@@](O)(NC(=O)O1)[C@H](OC)/C=C/C=C(\C)C2 (single isomer, unassigned) [Conjugate 108], the pIC50 [1, 2] was 7.02 and the pIC50 [1, 3] was 5.89.
Work on COc1cc2cc(c1Cl)N(C)C(=O)C[C@H](OC(=O)[C@H](C)N(C)C(=O)CCSSCCC(=O)N[C@H](Cc1ccccc1)C(=O)N[C@H]1CSSC[C@@H](C(=O)N[C@H](CO)[C@@H](C)O)NC(=O)[C@H]([C@@H](C)O)NC(=O)[C@H](CCCCN)NC(=O)[C@@H](Cc3c[nH]c4ccccc34)NC(=O)[C@H](Cc3ccccc3)NC1=O)[C@]1(C)O[C@H]1[C@H](C)[C@@H]1C[C@@](O)(NC(=O)O1)[C@H](OC)/C=C/C=C(\C)C2 [Conjugate 4] yielded a pIC50 [1, 2] of 6.44 and a pIC50 [1, 3] of 6.07.
With COc1cc2cc(c1Cl)N(C)C(=O)C[C@H](OC(=O)[C@H](C)N(C)C(=O)CCSSCCC(=O)NCCOCCOCCOCCOCCOCCOCCOCCOCCC(=O)N[C@H](Cc1ccccc1)C(=O)N[C@H]1CSSC[C@@H](C(=O)N[C@H](CO)[C@@H](C)O)NC(=O)[C@H]([C@@H](C)O)NC(=O)[C@H](CCCCN)NC(=O)[C@@H](Cc3c[nH]c4ccccc34)NC(=O)[C@H](Cc3ccccc3)NC1=O)[C@]1(C)O[C@H]1[C@H](C)[C@@H]1C[C@@](O)(NC(=O)O1)[C@H](OC)/C=C/C=C(\C)C2 [Conjugate 6] the pIC50 [1, 2] was 6.63.
Compound COc1cc2cc(c1Cl)N(C)C(=O)C[C@H](OC(=O)[C@H](C)N(C)C(=O)CCSSC[C@H](N)C(=O)N[C@@H](CCCCN)C(=O)N[C@@H](CCCCN)C(=O)N[C@@H](CCCCN)C(=O)N[C@@H](CCCCN)C(=O)N[C@H](Cc1ccccc1)C(=O)N[C@H]1CSSC[C@@H](C(=O)N[C@H](CO)[C@@H](C)O)NC(=O)[C@H]([C@@H](C)O)NC(=O)[C@H](CCCCN)NC(=O)[C@@H](Cc3c[nH]c4ccccc34)NC(=O)[C@H](Cc3ccccc3)NC1=O)[C@]1(C)O[C@H]1[C@H](C)[C@@H]1C[C@@](O)(NC(=O)O1)[C@H](OC)/C=C/C=C(\C)C2 [Conjugate 7] (H-C(X1)KKKK[dF]CF[dW]KTC[Thr(ol)]; disulfide 7-12) has a pIC50 [1, 2] of 6.02.
COc1cc2cc(c1Cl)N(C)C(=O)C[C@H](OC(=O)[C@H](C)N(C)C(=O)CCSSCCC(=O)NCCCC[C@H]1C(=O)N[C@@H](Cc3ccc(O)cc3)C(=O)N[C@H](Cc3c[nH]c4ccccc34)C(=O)N[C@@H](CCCCN)C(=O)N[C@@H]([C@@H](C)O)C(=O)N[C@@H](Cc3ccccc3)C(=O)N1C)[C@]1(C)O[C@H]1[C@H](C)[C@@H]1C[C@@](O)(NC(=O)O1)[C@H](OC)/C=C/C=C(\C)C2 [Conjugate 10] was tested, and the “H69 tumor DM-1 levels” value (NCI-H69 SCLC tumors) was 72.1 nM.
For COc1cc2cc(c1Cl)N(C)C(=O)C[C@H](OC(=O)[C@H](C)N(C)C(=O)CCSSCCNC(=O)CC[C@H]1C(=O)N[C@@H](Cc3ccc(O)cc3)C(=O)N[C@H](Cc3c[nH]c4ccccc34)C(=O)N[C@@H](CCCCN)C(=O)N[C@@H]([C@@H](C)O)C(=O)N[C@@H](Cc3ccccc3)C(=O)N1C)[C@]1(C)O[C@H]1[C@H](C)[C@@H]1C[C@@](O)(NC(=O)O1)[C@H](OC)/C=C/C=C(\C)C2 [Conjugate 14], the “H69 tumor DM-1 levels” value (NCI-H69 SCLC tumors) was 70.1 nM.
In the case of COc1cc2cc(c1Cl)N(C)C(=O)C[C@H](OC(=O)C(C)N(C)C(=O)CCSSCC(=O)NCCNC(=O)CC[C@H]1C(=O)N[C@@H](Cc3ccc(O)cc3)C(=O)N[C@H](Cc3c[nH]c4ccccc34)C(=O)N[C@@H](CCCCN)C(=O)N[C@@H]([C@@H](C)O)C(=O)N[C@@H](Cc3ccccc3)C(=O)N1C)[C@]1(C)O[C@H]1[C@H](C)[C@@H]1C[C@@](O)(NC(=O)O1)[C@H](OC)/C=C/C=C(\C)C2 (stereo partly drawn) [Conjugate 30], the pIC50 [1, 2] was 6.33 and the pIC50 [1, 3] was 5.70.
For COc1cc2cc(c1Cl)N(C)C(=O)C[C@H](OC(=O)[C@H](C)N(C)C(=O)CCSSCCC(=O)NCCOCCOCCOCCNC(=O)[C@@H](NC(=O)[C@@H]1CSSC[C@H](NC(=O)[C@H](N)Cc3ccccc3)C(=O)N[C@@H](Cc3ccc(O)cc3)C(=O)N[C@H](Cc3c[nH]c4ccccc34)C(=O)N[C@@H](CCCCN)C(=O)N[C@@H]([C@@H](C)O)C(=O)N1)[C@@H](C)O)[C@]1(C)O[C@H]1[C@H](C)[C@@H]1C[C@@](O)(NC(=O)O1)[C@H](OC)/C=C/C=C(\C)C2 [Conjugate 47], the pIC50 [1, 2] was 5.67 and the pIC50 [1, 3] was 5.90.
COc1cc2cc(c1Cl)N(C)C(=O)C[C@H](OC(=O)[C@H](C)N(C)C(=O)CCSSCCNC(=O)[C@H](Cc1c[nH]c3ccccc13)NC(=O)[C@@H]1CSSC[C@H](NC(=O)[C@H](N)Cc3ccccc3)C(=O)N[C@@H](Cc3ccc(O)cc3)C(=O)N[C@H](Cc3c[nH]c4ccccc34)C(=O)N[C@@H](CCCCN)C(=O)N[C@@H]([C@@H](C)O)C(=O)N1)[C@]1(C)O[C@H]1[C@H](C)[C@@H]1C[C@@](O)(NC(=O)O1)[C@H](OC)/C=C/C=C(\C)C2 [Conjugate 49] (H-[dF]CY[dW]KTCW-{NH(CH2)2SS(DM1)}; disulfide 2-7) showed a pIC50 [1, 2] of 7.16 and a pIC50 [1, 3] of 6.61.
Work on COc1cc2cc(c1Cl)N(C)C(=O)C[C@H](OC(=O)[C@H](C)N(C)C(=O)CCSSCCNC(=O)N[C@H](Cc1ccccc1)C(=O)N[C@H]1CSSC[C@@H](C(=O)N[C@H](CO)[C@@H](C)O)NC(=O)[C@H]([C@@H](C)O)NC(=O)[C@H](CCCCN)NC(=O)[C@@H](Cc3c[nH]c4ccccc34)NC(=O)[C@H](Cc3ccccc3)NC1=O)[C@]1(C)O[C@H]1[C@H](C)[C@@H]1C[C@@](O)(NC(=O)O1)[C@H](OC)/C=C/C=C(\C)C2 [Conjugate 84] yielded a pIC50 [1, 2] of 7.12 and a pIC50 [1, 3] of 6.51.
